{
  "source": "patent US20260151398A1",
  "about": "“COMPOUNDS FOR REDUCING CHOLESTEROL AND TREATING LIVER AND KIDNEY DISEASE” (McMaster University, priority 2021, published 2026)",
  "key": {"HepG2 hepatocytes": {"system": "HepG2 hepatocytes", "assay": "LDH cytotoxicity assay in HepG2 hepatocytes", "format": "cell-based, human", "conditions": "cultured HepG2 hepatocytes", "description": "Secreted PCSK9 levels were assessed using ELISAs and mRNA transcript via real-time PCR. […] Secreted PCSK9, as well as PCSK9 mRNA and SREBP2 mRNA were assessed in these cells. (E) The cytotoxicity of these agents was examined using an LDH assay. […] (G) The uptake of DiI-LDL was also quantified in these cells using a spectrophotometer. Values are presented as the mean and error bars as SD. *, p<0.05 vs. vehicle; NS, non-significant."}, "AMPK": {"system": "AMPK", "assay": "AMPK phosphorylation in livers of CF-treated mice", "format": "in vivo, mouse", "conditions": "C57BL/6J mice, CF 100 mg/kg, 8 hours", "description": "All animal studies were carried out in 8 h-fasted male wild-type, Pcsk9^−/− or Ampkβ1^−/− mice on the C57BL/6J background. CF (25-100 mg/kg-8 h) and CDN (50 mg/kg) treatments were administered via intraperitoneal injection unless specified otherwise. Primary mouse hepatocytes were isolated using a two-step process with EGTA ([…] in HEPES buffer, Sigma Aldrich) and collagenase (0.05% in HEPES buffer, Sigma Aldrich) in 12-week-old male mice on the C57BL/6J background. Cells were then washed, centrifuged, and plated following isolation in cell strainers. Hepatosure® 100-donor pooled primary human hepatocytes were purchased from Xenotech. Primary hepatocytes were regularly grown in William's E medium (Gibco, Thermo Fisher Scientific) containing 10% fetal bovine serum, 100 IU/ml penicillin, and 100 µg/ml streptomycin.\nPrevious studies have also shown that CF can promote the phosphorylation and activation of AMPK (Quan, H. Y., et al., 2013; Tsuda, S., et al., 2015), a liver-expressed kinase known to induce the inhibitory phosphorylation of SREBP1c (Li, Y., et al., 2011). […] Primary mouse hepatocytes were then isolated from wildtype (WT) and Ampkβ1−/− mice (Dzamko, N., et al., 2010)."}},
  "data": [
    {"molecule": "Cn1c(=O)c2c(ncn2C)n(C)c1=O", "note": "[caffeine, 1,3,7-Trimethylxanthine]", "values": [
      {"measurement": "cytotoxicity (LDH assay)", "setting": "HepG2 hepatocytes", "value": "did not exhibit cytotoxic properties"},
      {"measurement": "phosphorylation of AMPK (pAMPK) and pACC in liver", "setting": "AMPK", "value": "induced the phosphorylation and activation of AMPK"}
    ]}
  ]
}
